These results are taken from patent publication US8877819B2, “Methods for treating heat stress and related compositions” (Georgetown University, priority 2008, dated 2014).

The assay deals with T1, angiotensin converting enzyme (ACE) (Rattus norvegicus, UniProt P47820).
T1 construct: from tissue; host or cells: rat serum
T1 sequence (P47820 36-1313): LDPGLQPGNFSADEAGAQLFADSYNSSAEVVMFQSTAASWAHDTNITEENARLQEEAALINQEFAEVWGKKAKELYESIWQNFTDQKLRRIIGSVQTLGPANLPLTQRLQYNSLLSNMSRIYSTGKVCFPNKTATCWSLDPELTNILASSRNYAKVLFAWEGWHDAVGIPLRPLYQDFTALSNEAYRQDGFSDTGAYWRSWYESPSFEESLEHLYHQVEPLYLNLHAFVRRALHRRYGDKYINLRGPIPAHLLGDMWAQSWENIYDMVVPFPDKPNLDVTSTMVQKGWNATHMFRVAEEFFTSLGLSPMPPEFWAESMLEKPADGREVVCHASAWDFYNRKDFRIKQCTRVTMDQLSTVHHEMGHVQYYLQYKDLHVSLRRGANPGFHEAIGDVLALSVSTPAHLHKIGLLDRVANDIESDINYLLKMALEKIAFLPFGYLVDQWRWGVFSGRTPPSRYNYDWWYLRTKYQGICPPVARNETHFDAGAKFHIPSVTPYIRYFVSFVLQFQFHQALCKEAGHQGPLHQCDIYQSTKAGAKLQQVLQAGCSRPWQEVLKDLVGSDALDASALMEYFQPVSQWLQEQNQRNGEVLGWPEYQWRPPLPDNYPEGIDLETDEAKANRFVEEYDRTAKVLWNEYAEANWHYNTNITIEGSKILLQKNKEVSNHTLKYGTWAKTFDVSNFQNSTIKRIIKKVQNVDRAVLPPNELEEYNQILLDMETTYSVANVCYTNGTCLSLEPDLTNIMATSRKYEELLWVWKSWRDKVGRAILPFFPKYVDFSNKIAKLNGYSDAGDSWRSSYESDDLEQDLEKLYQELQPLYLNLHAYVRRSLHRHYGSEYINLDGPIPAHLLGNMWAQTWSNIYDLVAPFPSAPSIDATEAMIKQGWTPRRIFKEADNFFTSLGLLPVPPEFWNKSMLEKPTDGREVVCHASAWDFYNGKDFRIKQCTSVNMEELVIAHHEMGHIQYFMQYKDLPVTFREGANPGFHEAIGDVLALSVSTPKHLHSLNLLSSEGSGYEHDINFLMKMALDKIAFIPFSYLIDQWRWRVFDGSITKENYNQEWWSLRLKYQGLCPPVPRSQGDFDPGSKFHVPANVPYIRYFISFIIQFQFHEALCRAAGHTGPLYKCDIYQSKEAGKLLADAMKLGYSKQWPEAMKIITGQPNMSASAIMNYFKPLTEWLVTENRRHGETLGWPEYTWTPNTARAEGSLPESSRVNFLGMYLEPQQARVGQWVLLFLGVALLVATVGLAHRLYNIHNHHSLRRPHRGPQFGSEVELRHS
In words: Serum Angiotensin Converting Enzyme (ACE) activity. It counts as in vivo, Zucker Fatty Rats. How it is done: Serum ACE activity was measured by a commercial kit (Sigma Co. Ltd, St. Louis, Mo.). This spectrophotometric method utilizes the synthetic tripeptide substrate N-[3-(2-furyl)acryloyl]-phenylalanylglcylglcine (FAPGG). FAPGG is hydrolyzed by ACE to furylacryloylphenylalanine (FAP) and glycylglycine. Hydrolysis of FAPGG results in a decreased absorbency at 340 nm. Serum ACE activity was determined by comparing the sample reaction rate to that obtained with an appropriate ACE calibrator.

For `CC1=C(/C=C/C(C)=C/C=C/C(C)=C/C=C/C=C(C)/C=C/C=C(C)/C=C/C2=C(C)C(=O)[C@@H](O)CC2(C)C)C(C)(C)C[C@H](O)C1=O` [Asta, astaxanthin], the ACE activity reads like this: (Experiment 2, Hi Asta, astaxanthin 25 mg/kg in feed) 24.2 ± 1.3 units; (Experiment 2, Lo Asta, astaxanthin 5 mg/kg in feed) 27.1 ± 1.4 units.
